Reference: patent US9365523B2, “Imidazolyl amide compounds and uses related thereto” (priority 2011, dated 2016)

The molecules below were run on MeV-Alaska (assay: Antiviral activity of compound analogs against MeV-Alaska (tables 1-5)). Details: Measles morbillivirus; Table 5.
Format: cell-based, measles virus

SMILES | EC50 [µM]
Cc1ccc(NC(=O)CSc2nc(-c3ccccc3)c(-c3ccccc3)[nH]2)c(Cl)c1 [Compound 142] | > 75
COc1ccc(-n2c(S(=O)(=O)CC(=O)Nc3ccc(C)cc3Cl)nc3ccccc32)cc1 [Compound 141] | > 75
COc1ccc(Cn2c(CCC(=O)Nc3ccc(Cl)cc3Cl)nc3ccccc32)cc1 [Compound 160] | > 75
CCOC(=O)c1ccc2[nH]c(SC(C)C(=O)Nc3ccc(C)cc3Cl)nc2c1 (stereo not drawn) [Compound 126] | > 75
Cc1ccc(NC(=O)C(C)Sc2nc3ccccc3s2)c(Cl)c1 (stereo not drawn) [Compound 130] | > 75
Cc1ccc(NC(=O)c2ccccc2-c2nc3ccccc3n2-c2ccccc2)c(Cl)c1 [Compound 163] | > 50
CCOC(=O)c1ccc2[nH]c(SC(C)C(=O)Nc3ncc(C)cc3Cl)nc2c1 (stereo not drawn) [Compound 164] | > 75
Cc1ccc(NC(=O)C(C)Sc2nc(-c3ccccc3)c(-c3ccccc3)n2Cc2ccc(F)cc2)c(Cl)c1 (stereo not drawn) [Compound 128] | > 75
Cc1ccc(N(Cc2ccc(F)cc2)C(=O)CSc2nc(-c3ccccc3)c(-c3ccccc3)n2Cc2ccc(F)cc2)c(Cl)c1 [Compound 143] | > 75
COc1ccc(-n2c(S(=O)(=O)C(C)C(=O)Nc3ccccc3)nc3ccccc32)cc1 (stereo not drawn) [Compound 139] | > 75
O=C(CSc1nc2ccccc2n1-c1ccc(F)cc1)Nc1ncc(Cl)cc1Cl [Compound 156] | 1.8
Cc1ccc(NC(=O)C(C)(C)Sc2nc3ccccc3n2-c2ccccc2)c(Cl)c1 [Compound 170] | > 75
COc1ccc(Cn2c(NC(C)C(=O)Nc3ccc(C)cc3Cl)nc3ccccc32)cc1 (stereo not drawn) [Compound 127] | > 75
Cc1ccc(NC(=O)C(C)Sc2cc3ccccc3n2-c2ccccc2)c(Cl)c1 (stereo not drawn) [Compound 173] | > 9.3
CCC(Sc1nc2ccccc2n1-c1ccc(OC)cc1)C(=O)Nc1ncc(Cl)cc1Cl (stereo not drawn) [Compound 131] | 12.2
COc1ccc(-n2c(SC(C)C(=O)N3CCCCC3)nc3ccccc32)cc1 (stereo not drawn) [Compound 124] | > 75
COc1ccc(-n2c(SC(C)C(=O)N(C)c3ccc(Cl)cc3Cl)nc3ccccc32)cc1 (stereo not drawn) [Compound 149] | > 75
COc1ccc(-n2c(SCC(=O)Nc3ccc(C)cc3Cl)nc3ccccc32)cc1 [Compound 140] | 1.05

Same assay, conditions: Table 1

SMILES | EC50 [µM]
COc1ccc(-n2c(SC(C)C(=O)Nc3ccc(C)c(Cl)c3)nc3ccccc32)cc1 (stereo not drawn) [Compound 21] | 0.4
COc1ccc(-n2c(SC(C)C(=O)Nc3nc(C)c(C)s3)nc3ccccc32)cc1 (stereo not drawn) [Compound 54] | 2.5
COc1ccc(-n2c(SC(C)C(=O)Nc3nc(Cl)ccc3Cl)nc3ccccc32)cc1 (stereo not drawn) [Compound 4] | 0.3
COc1ccc(-n2c(SC(C)C(=O)Nc3ccc(C)cc3F)nc3ccccc32)cc1 (stereo not drawn) [Compound 31] | 0.2
COc1ccc(-n2c(SC(C)C(=O)Nc3nc(C)cc(Cl)n3)nc3ccccc32)cc1 (stereo not drawn) [Compound 7] | > 150
COc1ccc(-n2c(SC(C)C(=O)NC3CCCCC3)nc3ccccc32)cc1 (stereo not drawn) [Compound 9] | > 75
COc1ccc(-n2c(SC(C)C(=O)Nc3ncc(Br)cn3)nc3ccccc32)cc1 (stereo not drawn) [Compound 8] | 4.1
COc1ccc(-n2c(SC(C)C(=O)Nc3ncc(C(F)(F)F)cc3Cl)nc3ccccc32)cc1 (stereo not drawn) [Compound 3] | 0.4
COc1ccc(-n2c(SC(C)C(=O)Nc3cccc([N+](=O)[O-])c3)nc3ccccc32)cc1 (stereo not drawn) [Compound 33] | 4.6
COc1ccc(-n2c(SC(C)C(=O)Nc3ccccc3C)nc3ccccc32)cc1 (stereo not drawn) [Compound 15] | 1.14
COc1ccc(-n2c(SC(C)C(=O)Nc3ncccn3)nc3ccccc32)cc1 (stereo not drawn) [Compound 29] | 2
COc1ccc(-n2c(SC(C)C(=O)Nc3cc(Cl)ccc3Cl)nc3ccccc32)cc1 (stereo not drawn) [Compound 46] | 0.5
COc1ccc(-n2c(SC(C)C(=O)Nc3ccc(C#N)cn3)nc3ccccc32)cc1 (stereo not drawn) [Compound 26] | > 75
COc1ccc(-n2c(SC(C)C(=O)Nc3ccc(Cl)cc3Cl)nc3ccccc32)cc1 (stereo not drawn) [Compound 12] | 0.4
COc1ccc(-n2c(SC(C)C(=O)Nc3nc(Cl)cc(Cl)n3)nc3ccccc32)cc1 (stereo not drawn) [Compound 44] | > 75
COc1ccc(-n2c(SC(C)C(=O)Nc3ccccc3Cl)nc3ccccc32)cc1 (stereo not drawn) [Compound 50] | 0.14
COc1ccc(-n2c(SC(C)C(=O)Nc3ncc(C)cc3Cl)nc3ccccc32)cc1 (stereo not drawn) [Compound 5] | 0.04
COc1ccc(-n2c(SC(C)C(=O)Nc3nccc(C)n3)nc3ccccc32)cc1 (stereo not drawn) [Compound 11] | 0.6
COc1ccc(-n2c(SC(C)C(=O)Nc3nnc(C)c(C)n3)nc3ccccc32)cc1 (stereo not drawn) [Compound 6] | 16.6

Same assay, conditions: Table 2

SMILES | EC50 [µM]
Cc1ccc(NC(=O)C(C)Sc2nc3ccccc3n2Cc2ccccc2)c(Cl)c1 (stereo not drawn) [Compound 74] | 0.5
Cc1ccc(NC(=O)C(C)Sc2nc3ccccc3n2-c2ccc(N3CCN(C)CC3)cc2)c(Cl)c1 (stereo not drawn) [Compound 70] | 2
CCOc1ccc(-n2c(SC(C)C(=O)Nc3ccc(C)cc3Cl)nc3ccccc32)cc1 (stereo not drawn) [Compound 73] | 0.05
Cc1ccc(NC(=O)C(C)Sc2nc3ccccc3n2-c2ccc(CCO)cc2)c(Cl)c1 (stereo not drawn) [Compound 64] | 2.5
COc1cc(OC)cc(-n2c(SC(C)C(=O)Nc3ccc(C)cc3Cl)nc3ccccc32)c1 (stereo not drawn) [Compound 87] | 0.4
CNCCc1ccc(-n2c(SC(C)C(=O)Nc3ccc(C)cc3Cl)nc3ccccc32)cc1 (stereo not drawn) [Compound 66] | 8.7
Cc1ccc(NC(=O)C(C)Sc2nc3ccccc3n2-c2ccccc2CN2CCOCC2)c(Cl)c1 (stereo not drawn) [Compound 79] | 0.3
Cc1ccc(NC(=O)C(C)Sc2nc3ccccc3n2-c2ccc(OCC(=O)O)cc2)c(Cl)c1 (stereo not drawn) [Compound 68] | > 9.3
Cc1ccc(NC(=O)C(C)Sc2nc3ccccc3n2-c2ccc(N3CCOCC3)cc2)c(Cl)c1 (stereo not drawn) [Compound 84] | 0.3
Cc1ccc(NC(=O)C(C)Sc2nc3ccccc3n2C2CCNCC2)c(Cl)c1 (stereo not drawn) [Compound 92] | > 75
Cc1ccc(NC(=O)C(C)Sc2nc3ccccc3n2-c2cccc(C(=O)O)c2)c(Cl)c1 (stereo not drawn) [Compound 82] | > 75
Cc1ccc(NC(=O)C(C)Sc2nc3ccccc3n2-c2ccc(CN(C)C)cc2)c(Cl)c1 (stereo not drawn) [Compound 98] | 1.4
Cc1ccc(NC(=O)C(C)Sc2nc3ccccc3n2-c2cccc(CN3CCOCC3)c2)c(Cl)c1 (stereo not drawn) [Compound 83] | 0.27
Cc1ccc(NC(=O)C(C)Sc2nc3ccccc3n2-c2ccccc2)c(Cl)c1 (stereo not drawn) [Compound 72] | 0.09
Cc1ccc(NC(=O)C(C)Sc2nc3ccccc3n2-c2cccc(CO)c2)c(Cl)c1 (stereo not drawn) [Compound 80] | 0.7

Same assay, conditions: Table 3

SMILES | EC50 [µM]
Cc1nnc(NC(=O)C(C)Sc2nc3ccccc3n2-c2ccc(F)cc2)nc1C (stereo not drawn) [Compound 106] | 23
Cc1cccc(-n2c(SC(C)C(=O)Nc3ncc(C)cc3Cl)nc3ccccc32)c1 (stereo not drawn) [Compound 119] | 0.09
COc1cccc(-n2c(SC(C)C(=O)Nc3ncc(C)cc3Cl)nc3ccccc32)c1 (stereo not drawn) [Compound 108] | 0.4
CC(Sc1nc2ccccc2n1Cc1ccccc1)C(=O)Nc1ncc(Cl)cc1Cl (stereo not drawn) [Compound 111] | 4.9

Same assay, conditions: in our assays

SMILES | MeV inhibitory activity
O=C(CSc1nnc(Br)n1-c1ccc(C2CC2)c2ccccc12)Nc1ccc(C(=O)O)cc1Cl [RDEA-806, 4-(2-((5-bromo-4-(4-cyclopropylnaphthalen-1-yl)-4H-1,2,4-triazol-3-yl)thio)acetamido)-3-chlorobenzoic acid, reference compound] | lacks MeV inhibitory activity
